In PubChem BioAssay AID504522 (The Scripps Research Institute Molecular Screening Center, 2011):
Calls of active or inactive are those of the source. How the calls were made is not given here.

Columns and labels:
Assay in all cases: ABHD11 anti-target and serine hydrolase off-target inhibition, late-stage follow-up, selectivity assay for LYPLA1 inhibitor project, LC-MS, SILAC, mouse cells (AID 504522)
AADACL1 = conditions: SILAC ABPP LC-MS, serine hydrolase panel, stronger effect = lower value
ABHD10 = conditions: SILAC ABPP LC-MS, serine hydrolase panel, stronger effect = lower value
ABHD11 = conditions: SILAC ABPP LC-MS, serine hydrolase panel, stronger effect = lower value
ABHD12 = conditions: SILAC ABPP LC-MS, serine hydrolase panel, stronger effect = lower value
ABHD6 = conditions: SILAC ABPP LC-MS, serine hydrolase panel, stronger effect = lower value
ACOT1 = conditions: SILAC ABPP LC-MS, serine hydrolase panel, stronger effect = lower value
ACOT2 = conditions: SILAC ABPP LC-MS, serine hydrolase panel, stronger effect = lower value
ACOT7 = conditions: SILAC ABPP LC-MS, serine hydrolase panel, stronger effect = lower value
APEH = conditions: SILAC ABPP LC-MS, serine hydrolase panel, stronger effect = lower value
BAT5 = conditions: SILAC ABPP LC-MS, serine hydrolase panel, stronger effect = lower value
CTSA = conditions: SILAC ABPP LC-MS, serine hydrolase panel, stronger effect = lower value
DDHD1 = conditions: SILAC ABPP LC-MS, serine hydrolase panel, stronger effect = lower value
DPP4 = conditions: SILAC ABPP LC-MS, serine hydrolase panel, stronger effect = lower value
DPP7 = conditions: SILAC ABPP LC-MS, serine hydrolase panel, stronger effect = lower value
DPP8 = conditions: SILAC ABPP LC-MS, serine hydrolase panel, stronger effect = lower value
DPP9 = conditions: SILAC ABPP LC-MS, serine hydrolase panel, stronger effect = lower value
ESD = conditions: SILAC ABPP LC-MS, serine hydrolase panel, stronger effect = lower value
FAAH = conditions: SILAC ABPP LC-MS, serine hydrolase panel, stronger effect = lower value
FAM108B1 = conditions: SILAC ABPP LC-MS, serine hydrolase panel, stronger effect = lower value
FASN = conditions: SILAC ABPP LC-MS, serine hydrolase panel, stronger effect = lower value
IAH1 = conditions: SILAC ABPP LC-MS, serine hydrolase panel, stronger effect = lower value
LACTB = conditions: SILAC ABPP LC-MS, serine hydrolase panel, stronger effect = lower value
LIPA = conditions: SILAC ABPP LC-MS, serine hydrolase panel, stronger effect = lower value
LYPLA1 = conditions: SILAC ABPP LC-MS, serine hydrolase panel, stronger effect = lower value
LYPLA2 = conditions: SILAC ABPP LC-MS, serine hydrolase panel, stronger effect = lower value
LYPLA3 = conditions: SILAC ABPP LC-MS, serine hydrolase panel, stronger effect = lower value
PAFAH1B2 = conditions: SILAC ABPP LC-MS, serine hydrolase panel, stronger effect = lower value
PAFAH1B3 = conditions: SILAC ABPP LC-MS, serine hydrolase panel, stronger effect = lower value
PARL = conditions: SILAC ABPP LC-MS, serine hydrolase panel, stronger effect = lower value
PLA2G6 = conditions: SILAC ABPP LC-MS, serine hydrolase panel, stronger effect = lower value
PNPLA6 = conditions: SILAC ABPP LC-MS, serine hydrolase panel, stronger effect = lower value
PNPLA8 = conditions: SILAC ABPP LC-MS, serine hydrolase panel, stronger effect = lower value
PPME1 = conditions: SILAC ABPP LC-MS, serine hydrolase panel, stronger effect = lower value
PRCP = conditions: SILAC ABPP LC-MS, serine hydrolase panel, stronger effect = lower value
PREPL = conditions: SILAC ABPP LC-MS, serine hydrolase panel, stronger effect = lower value
[1] = molecular target: Platelet-activating factor acetylhydrolase 2, cytoplasmic (Mus musculus) (UniProt Q8VDG7); conditions: SILAC ABPP LC-MS, serine hydrolase panel, PAFAH2, stronger effect = lower value
Platelet-activating factor acetylhydrolase 2, cytoplasmic (Mus musculus), sequence (Q8VDG7 whole entry, looked up): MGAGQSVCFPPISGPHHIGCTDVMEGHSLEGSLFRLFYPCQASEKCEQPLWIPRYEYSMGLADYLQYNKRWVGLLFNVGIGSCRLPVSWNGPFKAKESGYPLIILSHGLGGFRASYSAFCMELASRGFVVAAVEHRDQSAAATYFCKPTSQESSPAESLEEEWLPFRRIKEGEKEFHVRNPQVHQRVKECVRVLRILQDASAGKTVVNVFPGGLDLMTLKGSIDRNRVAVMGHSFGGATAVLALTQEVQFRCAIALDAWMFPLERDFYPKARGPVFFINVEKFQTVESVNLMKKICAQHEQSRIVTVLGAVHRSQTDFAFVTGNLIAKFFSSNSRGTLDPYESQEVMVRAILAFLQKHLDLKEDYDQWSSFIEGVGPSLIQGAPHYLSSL

[2] = molecular target: Prolyl endopeptidase (Mus musculus) (UniProt Q9QUR6); conditions: SILAC ABPP LC-MS, serine hydrolase panel, PREP, stronger effect = lower value
Prolyl endopeptidase (Mus musculus), sequence (Q9QUR6 whole entry, looked up): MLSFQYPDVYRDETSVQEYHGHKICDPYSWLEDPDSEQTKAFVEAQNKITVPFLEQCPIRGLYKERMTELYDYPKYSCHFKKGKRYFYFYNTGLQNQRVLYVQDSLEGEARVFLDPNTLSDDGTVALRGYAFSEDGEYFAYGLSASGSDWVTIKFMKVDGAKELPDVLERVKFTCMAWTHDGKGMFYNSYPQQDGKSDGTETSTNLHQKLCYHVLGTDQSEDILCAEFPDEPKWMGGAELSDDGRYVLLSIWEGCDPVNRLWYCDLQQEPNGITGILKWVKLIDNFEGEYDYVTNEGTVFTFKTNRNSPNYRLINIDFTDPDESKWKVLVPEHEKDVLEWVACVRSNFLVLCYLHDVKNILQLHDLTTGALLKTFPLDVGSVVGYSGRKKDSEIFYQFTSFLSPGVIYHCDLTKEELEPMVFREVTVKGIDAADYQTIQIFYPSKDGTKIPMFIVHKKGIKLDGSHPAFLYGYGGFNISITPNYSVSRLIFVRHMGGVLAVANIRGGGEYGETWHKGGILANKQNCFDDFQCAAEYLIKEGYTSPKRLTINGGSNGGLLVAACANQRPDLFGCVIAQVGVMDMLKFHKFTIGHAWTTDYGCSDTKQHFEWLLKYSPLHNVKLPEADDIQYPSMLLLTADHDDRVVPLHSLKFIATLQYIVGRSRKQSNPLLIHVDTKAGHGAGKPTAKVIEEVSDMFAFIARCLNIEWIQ

SERHL = conditions: SILAC ABPP LC-MS, serine hydrolase panel, stronger effect = lower value
SIAE = conditions: SILAC ABPP LC-MS, serine hydrolase panel, stronger effect = lower value

Q: Which results are given for COCC1CCCCN1C(=O)n1ncc(C(O)(c2ccccc2)c2ccccc2)n1 (centres undefined)?
A: SILAC ratio (probe-treated/control) (AADACL1): 1.3 (inactive); SILAC ratio (probe-treated/control) (ABHD10): 1.3 (inactive); SILAC ratio (probe-treated/control) (ABHD11): 0.02; SILAC ratio (probe-treated/control) (ABHD12): 1.3 (inactive); SILAC ratio (probe-treated/control) (ABHD6): 0.9 (inactive); SILAC ratio (probe-treated/control) (ACOT1): 1 (inactive); SILAC ratio (probe-treated/control) (ACOT2): 1.1 (inactive); SILAC ratio (probe-treated/control) (ACOT7): 1.5 (inactive); SILAC ratio (probe-treated/control) (APEH): 1.4 (inactive); SILAC ratio (probe-treated/control) (BAT5): 1.5 (inactive); SILAC ratio (probe-treated/control) (CTSA): 1.3 (inactive); SILAC ratio (probe-treated/control) (DDHD1): 2 (inactive); SILAC ratio (probe-treated/control) (DPP4): 1 (inactive); SILAC ratio (probe-treated/control) (DPP7): 1.3 (inactive); SILAC ratio (probe-treated/control) (DPP8): 1.5 (inactive); SILAC ratio (probe-treated/control) (DPP9): 1.5 (inactive); SILAC ratio (probe-treated/control) (ESD): 1.4 (inactive); SILAC ratio (probe-treated/control) (FAAH): 1.5 (inactive); SILAC ratio (probe-treated/control) (FAM108B1): 1.3 (inactive); SILAC ratio (probe-treated/control) (FASN): 1.5 (inactive); SILAC ratio (probe-treated/control) (IAH1): 1.4 (inactive); SILAC ratio (probe-treated/control) (LACTB): 1.5 (inactive); SILAC ratio (probe-treated/control) (LIPA): 1.4 (inactive); SILAC ratio (probe-treated/control) (LYPLA1): 1.5 (inactive); SILAC ratio (probe-treated/control) (LYPLA2): 1.5 (inactive); SILAC ratio (probe-treated/control) (LYPLA3): 1.5 (inactive); SILAC ratio (probe-treated/control) (PAFAH1B2): 1.6 (inactive); SILAC ratio (probe-treated/control) (PAFAH1B3): 1.3 (inactive); SILAC ratio (probe-treated/control) (PARL): 1.5 (inactive); SILAC ratio (probe-treated/control) (PLA2G6): 1.4 (inactive); SILAC ratio (probe-treated/control) (PNPLA6): 1.4 (inactive); SILAC ratio (probe-treated/control) (PNPLA8): 1.3 (inactive); SILAC ratio (probe-treated/control) (PPME1): 1.5 (inactive); SILAC ratio (probe-treated/control) (PRCP): 1.5 (inactive); SILAC ratio (probe-treated/control) (PREPL): 1.2 (inactive); SILAC ratio (probe-treated/control) [1]: 1.3 (inactive); SILAC ratio (probe-treated/control) [2]: 1.4 (inactive); SILAC ratio (probe-treated/control) (SERHL): 1.5 (inactive); SILAC ratio (probe-treated/control) (SIAE): 1.5 (inactive)
